From patent US20230242936A1, “DUAL PROMOTER SYSTEMS” (Seattle Children's Hospital (dba Seattle Children's …, priority 2020, published 2023) come the findings set out here.

The subject of the test is CA-STAT5aER. Put plainly: Logic gate system with CA-STAT5aER payload, target reporter gene expression. Particulars: host cells co-cultured with CD19+ cells and treated with tamoxifen. In kind it is cell-based. Background: Reporter assays use an easily measured gene product as a stand-in for the process of interest.

Protocol: A logic gate system similar to the system depicted in FIG. 9 and FIG. 10 are examined. Dual promoter nucleic acids are prepared and introduced into host cells. The nucleic acids include an inducible iSynPro promoter and either a constitutively activated signal transducer and activator of transcription 5a (CA-STAT5a) protein (FIG. 9), a fusion protein of CA-STAT5a and of an estrogen receptor (CA-STAT5aER) (FIG. 10), or an alternative fusion protein of CA-STAT5a and of an estrogen receptor (CA-STAT5bER). Host cells are stimulated with Raji cells (CD19+), or PMA/ionomycin and are analyzed by FACS analysis for GFP and EGFRt expression.

With `CC/C(=C(\c1ccccc1)c1ccc(OCCN(C)C)cc1)c1ccccc1` [tamoxifen, 2-(4((1Z)-1,2-diphenyl-1-butenyl)phenoxy)-N,N-dimethyl-ethanamine], the “target reporter gene expression” value is given as “express target reporter gene”.
